For ten molecules, IC50 and EC50 results are on record in patent publication US7932277B2, “Peptide inhibitors of hepatitis C virus replication” (InterMune, Inc., priority 2007, dated 2011).

The target in assay [1] is T1, NS3/NS4A-2 (full-length HCV NS3 protease complexed with NS4A-2) (Hepatitis C virus genotype 1a, UniProt P27958).
T1 construct: Recombinant E. coli or Baculovirus full-length NS3; host or cells: E. coli or baculovirus (insect cells)
Kind of assay: NS3 inhibition assay (NS3-NS4 protease assay). It is filed as biochemical. As for the experimental part:
Recombinant E. coli or Baculovirus full-length NS3 was diluted to 3.33 μM with assay buffer and transferred material to an eppendorf tube and place in water bath in 4° C. refrigerator. The appropriate amount of NS4A-2 to 8.3 mM in assay buffer was added to equal the volume of NS3 in step 2.1.1 (conversion factor −3.8 mg/272 μL assay buffer). The material was transferred to an eppendorf tube and place in water bath in 4° C. refrigerator.
After equilibration to 4° C., equal volumes of NS3 and NS4A-2 solutions were combined in an eppendorf tube, mix gently with a manual pipettor, and incubate mixture for 15 minutes in the 4° C. water bath. Final concentrations in the mixture are 1.67 μM NS3, 4.15 mM NS4A-2 (2485-fold molar excess NS4A-2).
After 15 minutes at 4° C., the NS3/NS4A-2 eppendorf tube was removed and place it in a room temperature water bath for 10 minutes. NS3/NS4A-2 was aliquoted at appropriate volumes and store at −80° C. (E. coli NS3 run at 2 nM in assay, aliquot at 25 μL. BV NS3 run at 3 nM in assay, aliquot at 30 μL).
Sample compounds were dissolved to 10 mM in DMSO then diluted to 2.5 mM (1:4) in DMSO. Typically, compounds were added to an assay plate at 2.5 mM concentration, yielding upon dilution a starting concentration of 50 microM in the assay inhibition curve. Compounds were serial diluted in assay buffer to provide test solutions at lower concentrations.
The E. coli. NS3/NS4A-2 was diluted to 4 nM NS3 (1:417.5 of 1.67 μM stock−18 μL1.67 μM stock+7497 μL assay buffer). The BV NS3/NS4A-2 was diluted to 6 nM NS3 (1:278.3 of 1.67 μM stock−24 μL1.67 μM stock+6655 μL assay buffer). Using the manual multichannel pipettor, careful not to introduce bubbles into the plate, add 50 μL assay buffer to wells A01-H01 of a black Costar 96-well polypropylene storage plate.
Using the manual multichannel pipettor, careful not to introduce bubbles into the plate, add 50 μL of diluted NS3/NS4A-2 from step 2.2.6 to wells A02-H12 of plate in step 2.2.7. Using the manual multichannel pipettor, careful not to introduce bubbles into the plate, transfer 25 μL of the wells in drug dilution plate in step 2.2.5 to corresponding wells in assay plate in step 2.2.8. Change tips on multichannel pipettor for each row of compounds transferred. Using the manual multichannel pipettor, careful not to introduce bubbles into the plate, mix the wells from the assay plate in step 2.2.9 by aspirating and dispensing 35 μL of the 75 μL in each well five times. Change tips on multichannel pipettor for each row of wells mixed. Cover plate with a polystyrene plate lid and pre-incubate the plate from step 2.2.10 containing NS3 protease and sample compounds 10 minutes at room temperature. While plate from step 2.2.11 is pre-incubating, dilute RETS1 substrate in a 15 mL polypropylene centrifuge tube. Dilute RETS1 substrate to 8 μM (1:80.75 of 646 μM stock−65 μL 646 μM stock+5184 μL assay buffer).
After the plate in step is done pre-incubating, and using the manual multichannel, add 25 μL of substrate to all wells on the plate. Quickly mix the plate as in step 2.2.10, mixing 65 μL of the 100 μL in the wells.
Read the plate in kinetic mode on the Molecular Devices SpectraMax Gemini XS plate reader. Reader settings: Read time: 30 minutes, Interval: 36 seconds, Reads: 51, Excitation λ: 335 nm, Emission λ: 495 nm, cutoff: 475 nm, Automix: off, Calibrate: once, PMT: high, Reads/well: 6, Vmax pts: 21 or 28/51 depending on length of linearity of reaction
IC50s are determined using a four parameter curve fit equation, and converted to Ki's using the following Km's: • Full-length E. coli NS3−2.03 μM • Full-length BV NS3−1.74 μM • where Ki=IC50/(1+[S]/Km)) • Quantitation by ELISA of the Selectable Marker Protein, Neomycin Phosphotransferase II (NPTII) in the HCV Sub-Genomic Replicon, GS4.3

Assay [2] relates to HCV sub-genomic replicon (1377/NS3-3') in HuH-7 hepatoma cells (GS4.3). Kind of assay: Quantitation by ELISA of NPTII in the HCV sub-genomic replicon, GS4.3. It counts as cell-based, hepatitis C virus (HCV). The following applies: read-out: Replicon EC50. The method, then:
The HCV sub-genomic replicon (1377/NS3-3′, accession No. AJ242652), stably maintained in HuH-7 hepatoma cells, was created by Lohmann et al. Science 285: 110-113 (1999). The replicon-containing cell culture, designated GS4.3, was obtained from Dr. Christoph Seeger of the Institute for Cancer Research, Fox Chase Cancer Center, Philadelphia, Pa.
GS4.3 cells were maintained at 37° C., 5% CO2, in DMEM (Gibco 11965-092) supplemented with L-glutamine 200 mM (100×) (Gibco25030-081), non-essential amino acids (NEAA) (Biowhittaker 13-114E), heat-inactivated (HI) Fetal Bovine Serum (FBS) (Hyclone SH3007.03) and 750 μg/mL geneticin (G418)(Gibco 10131-035). Cells were sub-divided 1:3 or 4 every 2-3 days.
24 h prior to the assay, GS4.3 cells were collected, counted, and plated in 96-well plates (Costar 3585) at 7500 cells/well in 100 μL standard maintenance medium (above) and incubated in the conditions above. To initiate the assay, culture medium was removed, cells were washed once with PBS (Gibco 10010-023) and 90 μl Assay Medium (DMEM, L-glutamine, NEAA, 10% HI FBS, no G418) was added. Inhibitors were made as a 10× stock in Assay Medium, (3-fold dilutions from 10 μM to 56 pM final concentration, final DMSO concentration 1%), 10 μL were added to duplicate wells, plates were rocked to mix, and incubated as above for 72 h.
An NPTII Elisa kit was obtained from AGDIA, Inc. (Compound direct ELISA test system for Neomycin Phosphotransferase II, PSP 73000/4800). Manufacturer's instructions were followed, with some modifications. 10×PEB-1 lysis buffer was made up to include 500 μM PMSF (Sigma P7626, 50 mM stock in isopropanol). After 72 h incubation, cells were washed once with PBS and 150 μL PEB-1 with PMSF was added per well. Plates were agitated vigorously for 15 minutes, room temperature, then frozen at −70° C. Plates were thawed, lysates were mixed thoroughly, and 100 μl were applied to an NPTII Elisa plate. A standard curve was made. Lysate from DMSO-treated control cells was pooled, serially diluted with PEB-1 with PMSF, and applied to duplicate wells of the ELISA plate, in a range of initial lysate amount of 150 μL-2.5 μL. In addition, 100 μL buffer alone was applied in duplicate as a blank. Plates were sealed and gently agitated at room temperature for 2 h. Following capture incubation, the plates were washed 5×300 μL with PBS-T (0.5% Tween-20, PBS-T was supplied in the ELISA kit). For detection, a 1× dilution of enzyme conjugate diluent MRS-2 (5×) was made in PBS-T, into which 1:100 dilutions of enzyme conjugates A and B were added, as per instructions. Plates were resealed, and incubated with agitation, covered, room temperature, for 2 h. The washing was then repeated and 100 μL of room temperature TMB substrate was added. After approximately 30 minutes incubation (room temperature, agitation, covered), the reaction was stopped with 50 μL 3M sulfuric acid. Plates were read at 450 nm on a Molecular Devices Versamax plate reader.
Inhibitor effect was expressed as a percentage of DMSO-treated control signal, and inhibition curves were calculated using a 4-parameter equation: y=A+((B−A)/(1+((C/x)^D))), where C is half-maximal activity or EC50.

[3] abbreviates: recombinant full-length NS3/NS4A-2, RETS1 substrate, kinetic fluorescence read, read-out: NS3-NS4 IC50.
[4] abbreviates: Hepatitis C virus, Huh-7, GS4.3 cells, 72 h incubation, NPTII ELISA.
The mark [5] stands for this setting: GS4.3 cells, 72 h incubation, NPTII ELISA.

Read-outs that look alike come from different tables or passages of the source.

T1 sequence (P27958 1027-1657, one chain of several): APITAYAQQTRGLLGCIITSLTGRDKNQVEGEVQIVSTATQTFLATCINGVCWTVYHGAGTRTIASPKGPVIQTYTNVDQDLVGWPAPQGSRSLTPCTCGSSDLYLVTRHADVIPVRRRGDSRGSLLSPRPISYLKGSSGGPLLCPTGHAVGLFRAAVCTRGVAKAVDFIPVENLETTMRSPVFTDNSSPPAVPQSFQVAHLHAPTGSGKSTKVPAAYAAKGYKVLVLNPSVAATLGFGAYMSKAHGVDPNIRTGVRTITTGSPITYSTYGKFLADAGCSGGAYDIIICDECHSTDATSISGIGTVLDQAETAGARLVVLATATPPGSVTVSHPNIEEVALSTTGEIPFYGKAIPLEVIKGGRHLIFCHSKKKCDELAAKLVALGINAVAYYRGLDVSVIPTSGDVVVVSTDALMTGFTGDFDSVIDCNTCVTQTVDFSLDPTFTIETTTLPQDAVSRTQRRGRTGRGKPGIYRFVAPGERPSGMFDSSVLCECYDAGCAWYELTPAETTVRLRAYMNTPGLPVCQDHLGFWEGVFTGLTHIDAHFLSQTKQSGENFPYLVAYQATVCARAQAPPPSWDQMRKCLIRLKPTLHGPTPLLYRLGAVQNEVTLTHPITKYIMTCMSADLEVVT

Regarding `C=C[C@@H]1C[C@]1(NC(=O)[C@@H]1C[C@@H](OC(=O)N2Cc3cccc(F)c3C2)CN1C(=O)[C@@H](Nc1ccc(C(C)(C)C)cc1)C(C)C)C(=O)NS(=O)(=O)C1CC1` [Compound 38, [(3R,5S)-1-((S)-2-(4-tert-butylphenylamino)-3-methylbutanoyl)-5-((1R,2S)-1-(cyclopropylsulfonylcarbamoyl)-2-vinylcyclopropylcarbamoyl)pyrrolidin-3-yl]4-fluoroisoindoline-2-carboxylate], the IC50 in assay [1] (setting [3]) is under 100 nM. Also, the concentration for a half-maximal effect (EC50) in assay [2] (setting [4]) was 100 to 1000 nM.

On to `CC[C@@H]1C[C@]1(NC(=O)[C@@H]1C[C@@H](OC(=O)N2Cc3cccc(F)c3C2)CN1C(=O)[C@@H](Nc1cccc(C(F)(F)F)c1)C(C)(C)C)C(=O)NS(=O)(=O)C1CC1` [Compound 56, [(3R,5S)-5-((1R,2R)-1-(cyclopropylsulfonylcarbamoyl)-2-ethylcyclopropylcarbamoyl)-1-((S)-3,3-dimethyl-2-(3-(trifluoromethyl)phenylamino)butanoyl)pyrrolidin-3-yl]4-fluoroisoindoline-2-carboxylate], for which the IC50 in assay [1] (setting [3]) was under 100 nM. Besides, the EC50 in assay [2] (setting [4]) is under 100 nM.

In the case of `C=C[C@@H]1C[C@]1(NC(=O)[C@@H]1C[C@@H](OC(=O)N2Cc3cccc(Cl)c3C2)CN1C(=O)[C@@H](Nc1cccc(C(C)(C)C)c1)C(C)C)C(=O)NS(=O)(=O)C1CC1` [Compound 41, [(3R,5S)-1-((S)-2-(3-tert-butylphenylamino)-3-methylbutanoyl)-5-((1R,2S)-1-(cyclopropylsulfonylcarbamoyl)-2-vinylcyclopropylcarbamoyl)pyrrolidin-3-yl]4-chloroisoindoline-2-carboxylate], the concentration for half-maximal inhibition (IC50) in assay [1] (setting [3]) is under 100 nM. Also, the half-maximal effective concentration (EC50) in assay [2] (setting [4]) is under 100 nM.

Regarding “[(3R,5S)-5-(((1R,2S)-1-(cyclopropylsulfonylcarbamoyl)-2-vinylcyclopropyl)carbamoyl)-1-((S)-2-cyclohexyl-2-(5-ethylthiazol-2-ylamino)acetyl)pyrrolidin-3-yl]4-chloroisoindoline-2-carboxylate [Compound 62]”, the half-maximal inhibitory concentration (IC50) in assay [1] (setting [3]) is under 100 nM. Further, the EC50 in assay [2] (setting [5]) was under 100 nM.

Take “[(3R,5S)-5-(((1R,2R)-1-(Cyclopropylsulfonylcarbamoyl)-2-ethylcyclopropyl)carbamoyl)-1-((S)-2-(5-isopropylthiazol-2-ylamino)-3-methylbutanoyl)pyrrolidin-3-yl]4-chloroisoindoline-2-carboxylate [Compound 67]”: the IC50 in assay [1] (setting [3]) was under 100 nM. In assay [2] (setting [5]), the half-maximal effective concentration (EC50) is under 100 nM.

For the molecule `C=C[C@@H]1C[C@]1(NC(=O)[C@@H]1C[C@@H](OC(=O)N2Cc3cccc(F)c3C2)CN1C(=O)[C@@H](Nc1cccc(C(C)(C)C)c1)C(C)C)C(=O)NS(=O)(=O)C1CC1` [Compound 40, [(3R,5S)-1-((S)-2-(3-tert-butylphenylamino)-3-methylbutanoyl)-5-((1R,2S)-1-(cyclopropylsulfonylcarbamoyl)-2-vinylcyclopropylcarbamoyl)pyrrolidin-3-yl]4-fluoroisoindoline-2-carboxylate], the IC50 in assay [1] (setting [3]) is under 100 nM. Also, the half-maximal effective concentration (EC50) in assay [2] (setting [4]) is under 100 nM.

For `CC[C@@H]1C[C@]1(NC(=O)[C@@H]1C[C@@H](OC(=O)N2Cc3cccc(Cl)c3C2)CN1C(=O)[C@@H](Nc1cccc(C(C)(C)C)c1)C(C)C)C(=O)NS(=O)(=O)C1CC1` [Compound 46, [(3R,5S)-1-((S)-2-(3-tert-butylphenylamino)-3-methylbutanoyl)-5-((1R,2R)-1-(cyclopropylsulfonylcarbamoyl)-2-ethylcyclopropylcarbamoyl)pyrrolidin-3-yl]4-chloroisoindoline-2-carboxylate], the concentration for half-maximal inhibition (IC50) in assay [1] (setting [3]) is under 100 nM. For the same molecule, the 50% effective concentration (EC50) in assay [2] (setting [4]) is under 100 nM.

With `CC(C)(C)[C@H](Nc1cccc(C(F)(F)F)c1)C(=O)N1C[C@H]2[C@@H]([C@H]1C(=O)NC(CC1CCC1)C(=O)C(N)=O)C2(C)C` (some centres unmarked) [Compound 68], the IC50 in assay [1] lay in the range of 100 to 1000 nM. Moreover, the concentration giving a half-maximal response (EC50) in assay [2] (Hepatitis C virus, Huh-7, 72 h) was 10000 to 50000 nM.

On to `C=C[C@@H]1C[C@]1(NC(=O)[C@@H]1C[C@@H](OC(=O)N2Cc3cccc(F)c3C2)CN1C(=O)[C@@H](Nc1ccc(F)cc1)C(C)C)C(=O)NS(=O)(=O)C1CC1` [Compound 33, (3R,5S)-5-((1R,2S)-1-(cyclopropylsulfonylcarbamoyl)-2-vinylcyclopropylcarbamoyl)-1-((S)-2-(4-fluorophenylamino)-3-methylbutanoyl)pyrrolidin-3-yl 4-fluoroisoindoline-2-carboxylate], for which the 50% inhibitory concentration (IC50) in assay [1] (setting [3]) is under 100 nM. Besides, the 50% effective concentration (EC50) in assay [2] (setting [4]) was 100 to 1000 nM.

Take `CC[C@@H]1C[C@]1(NC(=O)[C@@H]1C[C@@H](Oc2nc3ccccc3s2)CN1C(=O)[C@@H](Nc1cccc(C(F)(F)F)c1)C(C)(C)C)C(=O)NS(=O)(=O)C1CC1` [Compound 69]: the 50% inhibitory concentration (IC50) in assay [1] (setting [3]) was under 100 nM. Also, the concentration giving a half-maximal response (EC50) in assay [2] (setting [4]) was under 100 nM.
